Experiments:
Boophilus microplus [1] = experiment: Boophilus microplus test (BOOPMI injection), Example 1; type: in vivo; details: application rate 20 μg/animal, injected into abdomen, after 7 days
Description: Boophilus microplus Test (BOOPMI Injection) • Solvent: dimethyl sulphoxide To prepare an active ingredient formulation, 10 mg of active ingredient are mixed with 0.5 ml of solvent and the concentrate is diluted with water to the desired concentration. The active ingredient solution was injected into the abdomen (Boophilus microplus), and the animals were transferred to dishes and stored in a climate-controlled room. The efficacy was assessed by the number of fertile eggs laid. After 7 days, the efficacy in % is determined. 100% means that no tick laid fertile eggs.

[2] = tested on: green peach aphid (Myzus persicae); experiment: Myzus test (MYZUPE spray treatment), Example 17; type: in vivo; details: china cabbage leaf discs sprayed, after 6 days
Method in brief: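 Efficacy recorded at 6 days as % kill, where 100% means every aphid dead and 0% none. Spray applied to Brassica pekinensis leaf discs bearing mixed-stage aphids; active ingredient dissolved in acetone with dimethylformamide and emulsifier, then diluted with emulsifier-containing water.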

Lucilia cuprina larvae [3] = experiment: Lucilia cuprina test (LUCICU), Example 3; type: in vivo; details: application rate 20 ppm, treated horsemeat, after 2 days
Description: Lucilia cuprina Test (LUCICU) • Solvent: dimethyl sulphoxide To prepare an active ingredient formulation, 10 mg of active ingredient are mixed with 0.5 ml of dimethyl sulphoxide, and the concentrate is diluted with water to the desired concentration. Vessels containing horsemeat which has been treated with the active ingredient formulation of the desired concentration are populated with Lucilia cuprina larvae. After 2 days, the kill rate in % is determined. 100% means that all larvae were killed; 0% means that no larvae were killed.

Ctenocephalides felis = Ctenocephalides felis oral (CTECFE), Example 2; type: in vivo; details: application rate 20 ppm in citrated cow's blood, after 2 days
Description: Ctenocephalides felis Oral ([…]) • Solvent: 1 part by weight of dimethyl sulphoxide For the purpose of preparing an active ingredient formulation, 10 mg of active ingredient are mixed with 0.5 ml of dimethyl sulphoxide. A portion of the concentrate was diluted with citrated cow's blood and the desired concentration was prepared. 20 unfed adult fleas (Ctenocephalides felis) are placed into a chamber sealed at the top and bottom with gauze. A metal cylinder with its lower end sealed with Parafilm is placed onto the chamber. The cylinder contains the blood-active ingredient preparation, which can be consumed by the fleas through the Parafilm membrane. After 2 days, the kill rate in % is determined. 100% means that all fleas were killed; 0% means that no fleas were killed.

Boophilus microplus [4] = experiment: Boophilus microplus test (BOOPMI injection), Example 11; type: in vivo; details: application rate 20 μg/animal, injected into abdomen, after 7 days
Method in brief: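 Efficacy rated from fertile egg laying: 100% means none of the ticks laid fertile eggs, read after 7 days. Compound, dissolved and diluted in DMSO, was delivered by abdominal injection, and ticks were kept in dishes under climate control.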

[5] = logP by HPLC on reverse-phase column (EEC Directive 79/831 Annex V.A8); type: physicochemical; details: HPLC-MS
Description: The logP values reported in the above Tables and Preparation Examples were determined according to EEC Directive 79/831 Annex V.A8 by HPLC (High Performance Liquid Chromatography) on a reverse-phase column (C18). Temperature 43° C.

[6] = tested on: mustard beetle (Phaedon cochleariae); experiment: Phaedon test (PHAECO spray treatment), Example 7; type: in vivo; details: application rate 20 g/ha, china cabbage leaf discs sprayed, after 7 days
Method in brief: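 Spray formulation (acetone/DMF with alkylaryl polyglycol ether, diluted in emulsifier-containing water) applied to Chinese cabbage leaf discs, which were dried and then stocked with mustard beetle larvae. Efficacy scored at 7 days as % larvae killed (100% all, 0% none).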

Lucilia cuprina larvae [7] = experiment: Lucilia cuprina test (LUCICU), Example 13; type: in vivo; details: application rate 100 ppm, treated horsemeat, after 2 days
Description: Lucilia cuprina Test (LUCICU) • Solvent: dimethyl sulphoxide To prepare an appropriate active ingredient formulation, 10 mg of active ingredient are mixed with 0.5 ml of dimethyl sulphoxide, and the concentrate is diluted with water to the desired concentration. Vessels containing horsemeat which has been treated with the active ingredient formulation of the desired concentration are populated with about 20 Lucilia cuprina larvae. After 2 days, the kill rate in % is determined. 100% means that all larvae were killed; 0% means that no larvae were killed.

[8] = tested on: armyworm (Spodoptera frugiperda); experiment: Spodoptera frugiperda test (SPODFR spray treatment), Example 15; type: in vivo; details: maize leaf discs sprayed, after 7 days
Method in brief: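 Caterpillars placed on dried, sprayed Zea mays leaf discs; formulation of acetone, dimethylformamide and emulsifier diluted with emulsifier-containing water to test concentration. Percent kill scored on day 7.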

[9] = tested on: red spider mite (Tetranychus urticae); experiment: Tetranychus test, OP-resistant (TETRUR spray treatment), Example 8; type: in vivo; details: application rate 20 g/ha, common bean leaf discs sprayed, after 6 days
Method in brief: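 Bean (Phaseolus vulgaris) leaf discs carrying all stages of OP-resistant Tetranychus urticae sprayed with compound in acetone/DMF with emulsifier, diluted in water to the test concentration. Mortality scored after 6 days as % efficacy (100% = all mites killed).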

Musca domestica adults = experiment: Musca domestica test (MUSCDO), Example 14; type: in vivo; details: application rate 100 ppm, treated sponge, after 2 days
Description: Musca domestica Test (MUSCDO) • Solvent: dimethyl sulphoxide To prepare an appropriate active ingredient formulation, 10 mg of active ingredient are mixed with 0.5 ml of dimethyl sulphoxide, and the concentrate is diluted with water to the desired concentration. Vessels containing a sponge which has been treated with the active ingredient formulation of the desired concentration are populated with Musca domestica adults. After 2 days, the kill rate in % is determined. 100% means that all flies were killed; 0% means that no flies were killed.

SMILES	efficacy in % (fertile eggs laid) (Boophilus microplus [1]) [%]	efficacy in % ([2]; application rate 500 g/ha) [%]	kill rate in % (efficacy) (Lucilia cuprina larvae [3]) [%]	kill rate in % (efficacy) (Ctenocephalides felis) [%]	efficacy in % (fertile eggs laid) (Boophilus microplus [4]) [%]	logP [5]	efficacy in % [6] [%]	kill rate in % (efficacy) (Lucilia cuprina larvae [7]) [%]	efficacy in % ([8]; application rate 500 g/ha) [%]	efficacy in % [9] [%]	efficacy in % ([2]; application rate 100 g/ha) [%]	kill rate in % (efficacy) (Musca domestica adults) [%]	efficacy in % ([8]; application rate 100 g/ha) [%]
Cc1cc(/C=C/C(=O)NC(c2cccc(C(F)(F)F)c2)C(F)(F)F)ccc1C(=O)NCc1ccccn1 (centres unmarked) [Ia-22]	100	100	90	100	100	HPLC-MS: logP = 2.65; mass	100	–	–	–	–	–	–
O=C(/C=C/c1ccc(C(=O)NC2CC2)c(C(F)(F)F)c1)NC(c1cc(Cl)cc(Cl)c1)C(F)(F)F (centres unmarked) [Ia-24]	100	–	80	100	100	HPLC-MS: logP = 3.5; mass	–	–	–	–	–	–	–
CC(NC(=O)c1ccc(/C=C/C(=O)NC(c2c(F)cccc2F)C(F)(F)F)cc1C(F)(F)F)C(F)(F)F (centres unmarked) [Ia-29]	100	–	–	–	100	HPLC-MS: logP = 3.41; mass	–	80	–	–	–	–	–
O=C(/C=C/c1ccc(C(=O)NCc2ccccc2)c(C(F)(F)F)c1)NC(c1cccc(C(F)(F)F)c1)C(F)(F)F (centres unmarked) [Ia-31]	100	–	–	95	100	HPLC-MS: logP = 3.68; mass	–	90	–	–	–	–	–
O=C(/C=C/c1ccc(C(=O)NCc2ccccn2)c(C(F)(F)F)c1)NC(c1ccc(Cl)c(Cl)c1)C(F)(F)F (centres unmarked) [Ia-32]	100	–	–	100	100	HPLC-MS: logP = 2.98; mass	–	–	83	–	–	–	–
O=C(/C=C/c1ccc(C(=O)NC2CC2)c(Br)c1)NC(c1cccc(C(F)(F)F)c1)C(F)(F)F (centres unmarked) [Ia-42]	100	–	100	100	100	HPLC-MS: logP = 3.23; mass	–	–	–	–	–	–	–
O=C(/C=C/c1ccc(C(=O)NC2CC2)c(Cl)c1)NC(c1cccc(C(F)(F)F)c1)C(F)(F)F (centres unmarked) [Ia-43]	100	80	100	100	100	HPLC-MS: logP = 3.22; mass	100	–	–	–	–	–	–
COCCNC(=O)c1ccc(/C=C/C(=O)NC(c2cccc(C(F)(F)F)c2)C(F)(F)F)cc1C(F)(F)F (centres unmarked) [Ia-58]	100	100	–	98	100	HPLC-MS: logP = 3.12; mass	100	–	83	90	–	–	–
O=C(/C=C/c1ccc(C(=O)NCc2ccc(F)cn2)c(C(F)(F)F)c1)NC(c1cccc(C(F)(F)F)c1)C(F)(F)F (centres unmarked) [Ia-73]	100	–	–	95	100	HPLC-MS: logP = 3.31; mass	100	80	–	100	–	–	–
O=C(/C=C/c1ccc(C(=O)NCc2ccc(Cl)nc2)c(C(F)(F)F)c1)NC(c1cccc(C(F)(F)F)c1)C(F)(F)F (centres unmarked) [Ia-80]	100	–	–	100	100	HPLC-MS: logP = 3.65; mass	100	80	–	–	–	–	–
O=C(/C=C/c1ccc(C(=O)NC2COC2)c(Br)c1)NC(c1cccc(C(F)(F)F)c1)C(F)(F)F (centres unmarked) [Ia-94]	–	–	–	–	100	HPLC-MS: logP = 2.8 mass	100	95	–	80	–	–	–
CC(NC(=O)c1ccc(/C=C/C(=O)NC(c2cccc(C(F)(F)F)c2)C(F)(F)F)cc1C(F)(F)F)c1ccccn1 (centres unmarked) [Ia-128]	–	–	–	–	100	HPLC-MS: logP = 3.22; mass	–	90	–	–	–	–	–
CC(NC(=O)c1ccc(/C=C/C(=O)NC(c2cccc(C(F)(F)F)c2)C(F)(F)F)cc1Br)c1ccccn1 (centres unmarked) [Ia-134]	–	–	–	–	100	HPLC-MS: logP = 3.11; mass	–	90	–	–	–	–	–
CC(Cn1cccn1)NC(=O)c1ccc(/C=C/C(=O)NC(c2cccc(C(F)(F)F)c2)C(F)(F)F)cc1C(F)(F)F (centres unmarked) [Ia-139]	–	–	–	–	100	HPLC-MS: logP = 3.42; mass	–	80	–	–	–	–	–
NC(=O)c1ccc(/C=C/C(=O)NC(c2cccc(C(F)(F)F)c2)C(F)(F)F)cc1C(F)(F)F (centres unmarked) [Ia-142]	–	–	–	–	100	HPLC-MS: logP = 2.89; mass	–	90	–	–	100	90	–
CNC(=O)c1ccc(/C=C/C(=O)NC(c2cccc(C(F)(F)F)c2)C(F)(F)F)cc1C(F)(F)F (centres unmarked) [Ia-147]	–	–	–	–	100	HPLC-MS: logP = 3.09; mass	–	80	–	–	–	–	100
O=C(/C=C/c1ccc(C(=O)NC2CSC2)c(Cl)c1)NC(c1cccc(C(F)(F)F)c1)C(F)(F)F (centres unmarked) [Ia-152]	–	–	–	–	100	HPLC-MS: logP = 3.51; mass	–	90	–	–	80	–	–

From US8889878B2, “Haloalky-substituted amides as insecticides and acaricides” (Bayer CropScience AG, priority 2009, dated 2014)
